Results on 60 molecules are retold here after US20130164259A1, “1,4-S[…] DERIVATIVES AND METHODS OF USE THEREOF” (priority 2009, published 2013).

pIC50: −log10 of the molar value. Bounds are passed on as bounds.

This experiment addresses T1, HCV NS5B polymerase (NS5BΔCT21) (Hepatitis C virus genotype 1b, UniProt Q9WMX2).
T1 construct: A soluble C-terminal 21-amino acid truncated NS5B enzyme form; polyhistidine (C); made in house; host or cells: Escherichia coli
Nature of the experiment: HCV NS5B Polymerase Inhibition Assay. It counts as biochemical, HCV-Con 1 isolate. The text has this: A chemically synthesized 75-mer version, designated DCoH75, whose sequence matches the 3′-end of D-RNA, and DCoH75ddC, where the 3′-terminal cytidine of DCoH75 is replaced by dideoxycytidine, were used for assaying the NS5B enzyme activity as described in Ferrari et al., 12th International Symposium on HCV and Related Viruses, P-306 (2005). The sequence of the template RNA was: 5′-UGUGCCGGUCUUUCUGAACGGGAUAUAAACCUGGCCAGCUUCAUCGAACAAGUUGCCGUGUCUAUGACAUAGAUC-3′ (SEQ ID NO: 1). A soluble C-terminal 21-amino acid truncated NS5B enzyme form (NS5BΔCT21, from HCV-Con 1 isolate, genotype 1b, Genbank accession number AJ238799) was produced and purified from Escherichia coli as C-terminal polyhistidine-tagged fusion protein as described in Ferrari et al., J. Virol. 73:1649-1654 (1999). A typical assay contained 20 mM Hepes pH 7.3, 10 mM MgCl2, 60 mM NaCl, 100 μg/ml BSA, 20 units/ml RNasin, 7.5 mM DTT, 0.1 μM ATP/GTP/UTP, 0.026 μM CTP, 0.25 mM GAU, 0.03 μM RNA template, 20 μCi/ml [^33P]-CTP, 2% DMSO, and 30 or 150 nM NS5B enzyme. Reactions were incubated at 22° C. for 2 hours, then stopped by adding 150 mM EDTA, washed in DE81 filter plate in 0.5M di-basic sodium phosphate buffer, pH 7.0, and counted using Packard TopCount after the addition of scintillation cocktail. Polynucleotide synthesis was monitored by the incorporation of radiolabeled CTP. The effect of the Compounds of Formula (I) on the polymerase activity was evaluated by adding various concentrations of a Compound of Formula (I), typically in 10 serial 2-fold dilutions, to the assay mixture. The starting concentrations ranged from 200 μM to 1 μM. An IC50 value for the inhibitor, defined as the compound concentration that provides 50% inhibition of polymerase activity, was determined by fitting the cpm data to the Hill equation Y=100/(1+10̂((LogIC50−X)*HillSlope)), where X is the logarithm of compound concentration, and Y is the % inhibition. Ferrari et al., 12th International Symposium on HCV and Related Viruses, P-306 (2005) described in detail this assay procedure. It should be noted that such an assay as described is exemplary and not intended to limit the scope of the invention. The skilled practitioner can appreciate that modifications including but not limited to RNA template, primer, nucleotides, NS5B polymerase form, buffer composition, can be made to develop similar assays that yield the same result for the efficacy of the compounds and compositions described in the invention.
NS5B polymerase inhibition data was calculated for the compounds of the present invention using this method and is set forth in the table below.

Take `CC(C)c1ccc(NC(=O)c2cnccc2C(F)(F)F)c(N2CCN(c3cnccn3)CC2)c1` [Compound 26]: the pIC50 (commonly the negative decadic logarithm of the IC50, by convention in mol/L) was under 4.70.
The result for `CC(C)c1ccc(NC(=O)c2ccsc2)c(N2CCN(c3cnccn3)CC2)c1` [Compound 23] reads 5.15; that for `Cc1ncccc1C(=O)Nc1ccc(C(C)C)cc1N1CCN(c2ccncn2)CC1` [Compound 57], 7.00.
On to `Cc1nc(Br)sc1C(=O)Nc1ccc(C(C)C)cc1N1CCN(c2cnccn2)CC1` [Compound 21], for which the pIC50 is 5.52.
`CC(C)c1ccc(NC(=O)C2CCOCC2)c(N2CCN(c3cnccn3)CC2)c1` [Compound 31] showed a pIC50 of under 4.70.
The result for `CC(C)c1ccc(NC(=O)c2cccnc2)c(N2CCN(c3cnccn3)CC2)c1` [Compound 1] reads 5.52.
The result for `CC(C)c1ccc(NC(=O)c2cccnc2N)c(N2CCN(c3cnccn3)CC2)c1` [Compound 8] reads 6.00; that for `CC(C)c1ccc(NC(=O)c2cccc(O)n2)c(N2CCN(c3cnccn3)CC2)c1` [Compound 9], 4.34; that for `O=C(Nc1ccc(-c2ccccc2)cc1N1CCN(c2cnccn2)CC1)c1cccnc1` [Compound 67], 5.10.
Turning to `CC(C)(C)c1ccc(NC(=O)c2cccnc2)c(N2CCN(c3cnccn3)CC2)c1` [Compound 63], the pIC50 is 5.52.
The result for `C=C(C)c1ncccc1C(=O)Nc1ccc(C(C)C)cc1N1CCN(c2cnccn2)CC1` [Compound 4] reads under 3.70; that for `CC(C)c1ccc(NC(=O)c2cccnc2)c(N2CCN(c3ncccn3)CC2)c1` [Compound 43], 5.64; that for `O=C(Nc1ccc(C2CC2)cc1N1CCN(c2cnccn2)CC1)c1cccnc1` [Compound 66], 4.92.
The result for `Cc1ncoc1C(=O)Nc1ccc(C(C)C)cc1N1CCN(c2cnccn2)CC1` [Compound 28] reads 4.85; that for `Cc1ncccc1C(=O)Nc1ccc(C(C)C)cc1N1CCN(c2cnccn2)CC1` [Compound 2], 6.28.
On to `CC(C)c1ccc(NC(=O)c2cccnc2)c(N2CCN(S(C)(=O)=O)CC2)c1` [Compound 54], for which the pIC50 was under 3.70.
The result for `CC(C)c1ccc(NC(=O)c2cccnc2)c(N2CCN(c3ccccn3)CC2)c1` [Compound 51] reads 5.14; that for `Cc1ncsc1C(=O)Nc1ccc(C(C)C)cc1N1CCN(c2cnccn2)CC1` [Compound 20], 6.24; that for `Cc1nccnc1N1CCN(c2cc(C(C)C)ccc2NC(=O)c2cccnc2)CC1` [Compound 45], 5.41.
For `C=C(C)c1ccc(NC(=O)c2cccnc2)c(N2CCN(c3cnccn3)CC2)c1` [Compound 64], the pIC50 was 5.15.
As to `CC(C)c1ccc(NC(=O)c2cccnc2-c2ccccc2)c(N2CCN(c3cnccn3)CC2)c1` [Compound 5], the pIC50 is under 3.70.
The result for `CC(C)c1ccc(NC(=O)c2cnc3[nH]ccc3c2)c(N2CCN(c3cnccn3)CC2)c1` [Compound 24] reads under 4.70.
Molecule `CC(C)c1ccc(NC(=O)c2cccnc2)c(N2CCN(c3nccs3)CC2)c1` [Compound 47] gave a pIC50 of 5.60.
Turning to `CC(C)c1ccc(NC(=O)c2ccccn2)c(N2CCN(c3cnccn3)CC2)c1` [Compound 33], the pIC50 is under 4.70.
The result for `CC(C)c1ccc(NC(=O)c2cccnc2)c(N2CCN(C(=O)CN(C)C)CC2)c1` [Compound 55] reads under 3.70; that for `Cc1c(F)cc(C(=O)Nc2ccc(C(C)C)cc2N2CCN(c3cnccn3)CC2)cc1F` [Compound 16], 5.25.
Consider `CC(C)c1ccc(NC(=O)c2ccnnc2)c(N2CCN(c3cnccn3)CC2)c1` [Compound 35], for which the pIC50 is under 4.70.
The result for `Cc1ncccc1C(=O)Nc1ccc(C(C)C)cc1N1CCN(c2ncnc3[nH]ccc23)CC1` [Compound 60] reads 7.49.
Take `CC(C)c1ccc(NC(=O)c2ccc(C(F)(F)F)nc2)c(N2CCN(c3cnccn3)CC2)c1` [Compound 25]: the pIC50 is 5.64. Against the preceding molecule, the pIC50 is 1.85 log units lower.
The result for `Cc1nocc1C(=O)Nc1ccc(C(C)C)cc1N1CCN(c2cnccn2)CC1` [Compound 38] reads 4.89.
`Cc1cnc(N2CCN(c3cc(C(C)C)ccc3NC(=O)c3cccnc3)CC2)s1` [Compound 49] gave a pIC50 of 5.41.
The result for `Cc1c(F)cccc1C(=O)Nc1ccc(C(C)C)cc1N1CCN(c2cnccn2)CC1` [Compound 13] reads 5.39.
The result for `Cc1nccc(N2CCN(c3cc(C(C)C)ccc3NC(=O)c3cccnc3)CC2)n1` [Compound 42] reads 6.80.
The result for `Cc1c(F)cc(F)cc1C(=O)Nc1ccc(C(C)C)cc1N1CCN(c2cnccn2)CC1` [Compound 14] reads 6.27.
`Cc1nc(N(C)C)sc1C(=O)Nc1ccc(C(C)C)cc1N1CCN(c2cnccn2)CC1` [Compound 22]: the pIC50 is 5.00.
Regarding `Cc1n[nH]cc1C(=O)Nc1ccc(C(C)C)cc1N1CCN(c2cnccn2)CC1` [Compound 39], the negative-log IC50 (pIC50) is under 3.70.
The result for `O=C(Nc1ccc(C(F)(F)F)cc1N1CCN(c2cnccn2)CC1)c1cccnc1` [Compound 68] reads under 4.70.
The result for `Cc1cnc(C)c(N2CCN(c3cc(C(C)C)ccc3NC(=O)c3cccnc3)CC2)n1` [Compound 46] reads 3.85.
Take `Cc1ncccc1C(=O)Nc1ccc(C(C)C)cc1N1CCN(c2ncnc3ccsc23)CC1` [Compound 59]: the pIC50 is 7.85.
For the molecule `Cc1ncccc1C(=O)Nc1ccc(C(C)C)cc1N1CCN(c2cncc(-c3ccccc3)n2)CC1` [Compound 62], the pIC50 was 4.77. Compared with the last molecule, the pIC50 is 3.08 log units lower.
The result for `CC(C)c1ccc(NC(=O)C2CCCNC2)c(N2CCN(c3cnccn3)CC2)c1` (stereo not drawn) [Compound 32] reads under 3.70.
The result for `CC(C)c1ccc(NC(=O)c2cccnc2C2CC2)c(N2CCN(c3cnccn3)CC2)c1` [Compound 3] reads 5.70; that for `CC(C)c1ccc(NC(=O)c2cccnc2O)c(N2CCN(c3cnccn3)CC2)c1` [Compound 10], 5.52.
The result for `Cc1ccc(C(=O)Nc2ccc(C(C)C)cc2N2CCN(c3cnccn3)CC2)cn1` [Compound 17] reads 4.85; that for `Cc1occc1C(=O)Nc1ccc(C(C)C)cc1N1CCN(c2cnccn2)CC1` [Compound 29], 4.82.
The molecule `CNCC(=O)N1CCN(c2cc(C(C)C)ccc2NC(=O)c2cccnc2)CC1` [Compound 56] showed a pIC50 of under 3.70.
The result for `CC(C)c1ccc(NC(=O)c2cccnc2C(F)(F)F)c(N2CCN(c3cnccn3)CC2)c1` [Compound 7] reads 5.64; that for `Cc1oncc1C(=O)Nc1ccc(C(C)C)cc1N1CCN(c2cnccn2)CC1` [Compound 27], 4.89.
On to `Cc1ncccc1C(=O)Nc1ccc(C(C)C)cc1N1CCN(c2cncc(C3CC3)n2)CC1` [Compound 61], for which the pIC50 is 6.00.
The result for `Cc1csc(N2CCN(c3cc(C(C)C)ccc3NC(=O)c3cccnc3)CC2)n1` [Compound 48] reads 4.82.
`Cc1cncc(N2CCN(c3cc(C(C)C)ccc3NC(=O)c3cccnc3)CC2)n1` [Compound 40] had a pIC50 of 6.30.
`O=C(Nc1ccc(I)cc1N1CCN(c2cnccn2)CC1)c1cccnc1` [Compound 70] showed a pIC50 of 4.89.
With `CC(C)c1ccc(NC(=O)c2cccc(F)c2)c(N2CCN(c3cnccn3)CC2)c1` [Compound 12], the negative-log IC50 (pIC50) is 6.00.
The molecule `CC(C)c1ccc(NC(=O)c2cnc3ccccc3c2)c(N2CCN(c3cnccn3)CC2)c1` [Compound 19] showed a pIC50 of 5.17.
The molecule `CC(C)c1ccc(NC(=O)c2cccnc2)c(N2CCN(C(=O)OC(C)(C)C)CC2)c1` [Compound 53] showed a pIC50 of under 3.70.
The result for `CSCc1nccc(N2CCN(c3cc(C(C)C)ccc3NC(=O)c3cccnc3C)CC2)n1` [Compound 58] reads 7.57.
The result for `CC(C)c1ccc(NC(=O)c2cccnc2)c(N2CCN(c3ccncn3)CC2)c1` [Compound 41] reads 6.25; that for `O=C(Nc1ccc(Br)cc1N1CCN(c2cnccn2)CC1)c1cccnc1` [Compound 65], under 4.70; that for `CCOC(=O)c1ccc(NC(=O)c2cccnc2)c(N2CCN(c3cnccn3)CC2)c1` [Compound 69], under 5.30.
On to `CC(C)c1ccc(NC(=O)c2ccnc(NC(=O)C(C)(C)C)c2)c(N2CCN(c3cnccn3)CC2)c1` [Compound 37], for which the pIC50 is under 4.70.
